This is an account of results in the supplement of paper PMC6965134.

The structures appear in SMILES notation. ± gives the standard deviation of the averaged measurements.

This series can be described thus: TIMS collisional cross section (CCS, N2) of the lipid ion; higher = larger ion cross section. To be noted: ionization mode: positive, one isomer drawn.

Take `CCCCC/C=C\CCCCCCCC(=O)OC[C@H](COC(=O)CCCCCCC/C=C\CCCCCC)OC(=O)CCCCCCCCCCCCCCC` [TG 15:1_16:0_16:1] (ion (formula + adduct): [C50H92O6+NH4] 1+): the “TIMS collisional cross section” value reads like this: (sample type: Liver) 307.4 Å²; (sample type: plasma) 307.1 Å². For `CCCCC/C=C\C/C=C\CCCCCCCC(=O)OC[C@@H](COC(=O)CCCCCCC/C=C\CCCCC)OC(=O)CCCCCCCCCCCCCCC` [TG 15:1_16:0_18:2] (ion (formula + adduct): [C52H94O6+NH4] 1+), where the note is “sample type: plasma”, the “TIMS collisional cross section” value is listed as 311 Å². In the case of `CCCCC/C=C\CCCCCCCC(=O)OC[C@H](COC(=O)CCCCCCC/C=C\CCCCCC)OC(=O)CCCCCCC/C=C\CCCCCC` [TG 15:1_16:1_16:1] (ion (formula + adduct): [C50H90O6+NH4] 1+), where the note is “sample type: HeLa”, the “TIMS collisional cross section” value was found to be 305 Å².

`CCCCC/C=C\CCCCCCCC(=O)OC[C@H](COC(=O)CCCCCCCCCCCCCCCC)OC(=O)CCCCCCC/C=C\CCCCCC` [TG 15:1_16:1_17:0] (ion (formula + adduct): [C51H94O6+NH4] 1+): the “TIMS collisional cross section” value (sample type: Liver) turned out to be 309.9 Å². With `CCCCC/C=C\CCCCCCCC(=O)OC[C@H](COC(=O)CCCCCCC/C=C\CCCCCCC)OC(=O)CCCCCCC/C=C\CCCCCC` [TG 15:1_16:1_17:1] (ion (formula + adduct): [C51H92O6+NH4] 1+), the “TIMS collisional cross section” value (sample type: Liver) is 308.7 Å². With `CCCCC/C=C\CCCCCCCC(=O)OC[C@H](COC(=O)CCCCCCC/C=C\CCCCCCCC)OC(=O)CCCCCCC/C=C\CCCCCC` [TG 15:1_16:1_18:1] (ion (formula + adduct): [C52H94O6+NH4] 1+), the “TIMS collisional cross section” value reads like this: (sample type: HeLa) 310.8 Å²; (sample type: Liver) 312.2 Å². For `CCCCC/C=C\C/C=C\CCCCCCCC(=O)OC[C@@H](COC(=O)CCCCCCC/C=C\CCCCC)OC(=O)CCCCCCC/C=C\CCCCCC` [TG 15:1_16:1_18:2] (ion (formula + adduct): [C52H92O6+NH4] 1+), the “TIMS collisional cross section” value (sample type: HeLa) was determined as 308.4 Å². On to `C(OC(=O)CCCCCCCCCCCCCCC)[C@]([H])(OC(CCCCCCCCCCCCCCC)=O)COC(CCCCCCCCCCCCCCC)=O` [TG 16:0_16:0_16:0] (ion (formula + adduct): [C51H98O6+NH4] 1+), for which the “TIMS collisional cross section” value (sample type: plasma) was determined as 314.45 ± 0.21 Å². In the case of `CCCCCC/C=C\CCCCCCCC(=O)OC[C@@H](COC(=O)CCCCCCCCCCCCCCC)OC(=O)CCCCCCCCCCCCCCC` [TG 16:0_16:0_16:1] (ion (formula + adduct): [C51H96O6+NH4] 1+), the “TIMS collisional cross section” value (sample type: HeLa) was 311.7 Å². In the case of `CCCCCCCCCCCCCCCCC(=O)OC[C@@H](COC(=O)CCCCCCCCCCCCCCC)OC(=O)CCCCCCCCCCCCCCC` [TG 16:0_16:0_17:0] (ion (formula + adduct): [C52H100O6+NH4] 1+), the “TIMS collisional cross section” value is, setting by setting: (sample type: HeLa) 317.5 Å²; (sample type: Liver) 317.6 Å²; (sample type: plasma) 317.6 Å². Turning to `CCCCCCC/C=C\CCCCCCCC(=O)OC[C@@H](COC(=O)CCCCCCCCCCCCCCC)OC(=O)CCCCCCCCCCCCCCC` [TG 16:0_16:0_17:1] (ion (formula + adduct): [C52H98O6+NH4] 1+), the “TIMS collisional cross section” value (sample type: Liver) is recorded as 315.2 Å².

For `CCCCCCCCCCCCCCCCCC(=O)OC[C@@H](COC(=O)CCCCCCCCCCCCCCC)OC(=O)CCCCCCCCCCCCCCC` [TG 16:0_16:0_18:0] (ion (formula + adduct): [C53H102O6+NH4] 1+), the “TIMS collisional cross section” value is, setting by setting: (sample type: HeLa) 319.9 Å²; (sample type: Liver) 320.7 Å²; (sample type: plasma) 320.25 ± 0.35 Å². For the compound `CCCCCC/C=C/CCCCCCCCCC(=O)OC[C@@H](COC(=O)CCCCCCCCCCCCCCC)OC(=O)CCCCCCCCCCCCCCC` [TG 16:0_16:0_18:1] (ion (formula + adduct): [C53H100O6+NH4] 1+), the “TIMS collisional cross section” value amounted to 318.75 ± 0.21 Å² (sample type: HeLa) and 318.4 Å² (sample type: plasma). Turning to `CCCCCCCCC/C=C\CCCCCCCC(=O)OC[C@@H](COC(=O)CCCCCCCCCCCCCCC)OC(=O)CCCCCCCCCCCCCCC` [TG 16:0_16:0_19:1] (ion (formula + adduct): [C54H102O6+NH4] 1+), for the setting “sample type: HeLa”, the “TIMS collisional cross section” value is on record as 321.5 Å².

In the case of `CCCCCCCC/C=C\CCCCCCCCCC(=O)OC[C@@H](COC(=O)CCCCCCCCCCCCCCC)OC(=O)CCCCCCCCCCCCCCC` [TG 16:0_16:0_20:1] (ion (formula + adduct): [C55H104O6+NH4] 1+), the “TIMS collisional cross section” value (sample type: HeLa) was 324.7 Å².

As for `CCCCC/C=C\C/C=C\C/C=C\C/C=C\CCCC(=O)OC[C@@H](COC(=O)CCCCCCCCCCCCCCC)OC(=O)CCCCCCCCCCCCCCC` [TG 16:0_16:0_20:4] (ion (formula + adduct): [C55H98O6+NH4] 1+), the “TIMS collisional cross section” value (sample type: HeLa) was determined as 320.5 Å².

For the compound `CC/C=C\C/C=C\C/C=C\C/C=C\C/C=C\CCCC(=O)OC[C@@H](COC(=O)CCCCCCCCCCCCCCC)OC(=O)CCCCCCCCCCCCCCC` [TG 16:0_16:0_20:5] (ion (formula + adduct): [C55H96O6+Na] 1+), the “TIMS collisional cross section” value (sample type: Liver) worked out at 314.5 Å².

Regarding `CC/C=C\C/C=C\C/C=C\C/C=C\C/C=C\C/C=C\CCC(=O)OC[C@@H](COC(=O)CCCCCCCCCCCCCCC)OC(=O)CCCCCCCCCCCCCCC` [TG 16:0_16:0_22:6] (ion (formula + adduct): [C57H98O6+NH4] 1+), the “TIMS collisional cross section” value (sample type: HeLa) is reported as 324 Å². Regarding `CCCCCC/C=C\CCCCCCCC(=O)OC[C@@H](COC(=O)CCCCCCCCCCCCCCC)OC(=O)CCCCCCC/C=C\CCCCCC` [TG 16:0_16:1_16:1] (ion (formula + adduct): [C51H94O6+NH4] 1+), where the note is “sample type: Liver”, the “TIMS collisional cross section” value was 310.2 Å². Consider `CCCCCC/C=C\CCCCCCCC(=O)O[C@H](COC(=O)CCCCCCCCCCCCCCC)COC(=O)CCCCCCCCCCCCCCCC` [TG 16:0_16:1_17:0] (ion (formula + adduct): [C52H98O6+NH4] 1+), for which the “TIMS collisional cross section” value (sample type: HeLa) turned out to be 315.8 Å². Consider `CCCCCC/C=C\CCCCCCCC(=O)O[C@@H](COC(=O)CCCCCCC/C=C\CCCCCCC)COC(=O)CCCCCCCCCCCCCCC` [TG 16:0_16:1_17:1] (ion (formula + adduct): [C52H96O6+NH4] 1+), for which, where the note is “sample type: plasma”, the “TIMS collisional cross section” value was 313.2 Å².

In the case of `CCCCCC/C=C\CCCCCCCC(=O)O[C@@H](COC(=O)CCCCCCC/C=C\CCCCCCCC)COC(=O)CCCCCCCCCCCCCCC` [TG 16:0_16:1_18:1] (ion (formula + adduct): [C53H98O6+NH4] 1+), the “TIMS collisional cross section” value runs as follows: (sample type: HeLa) 315.9 Å²; (sample type: Liver) 315.95 ± 0.53 Å²; (sample type: plasma) 315.8 ± 0.27 Å². `CCCCC/C=C\C/C=C\CCCCCCCC(=O)OC[C@@H](COC(=O)CCCCCCCCCCCCCCC)OC(=O)CCCCCCC/C=C\CCCCCC` [TG 16:0_16:1_18:2] (ion (formula + adduct): [C53H96O6+NH4] 1+): the “TIMS collisional cross section” value by setting is: (sample type: HeLa) 314.4 Å²; (sample type: Liver) 313.45 ± 0.55 Å²; (sample type: plasma) 313.6 ± 0.44 Å². Turning to `CC/C=C\C/C=C\C/C=C\C/C=C\C/C=C\CCCCCC(=O)OC[C@@H](COC(=O)CCCCCCCCCCCCCCC)OC(=O)CCCCCCC/C=C\CCCCCC` [TG 16:0_16:1_22:5] (ion (formula + adduct): [C57H98O6+NH4] 1+), under “sample type: HeLa”, the “TIMS collisional cross section” value is listed as 321.9 Å². The same measure, in the same setting: under `CC/C=C\C/C=C\C/C=C\C/C=C\C/C=C\C/C=C\CCC(=O)OC[C@@H](COC(=O)CCCCCCCCCCCCCCC)OC(=O)CCCCCCC/C=C\CCCCCC` [TG 16:0_16:1_22:6] (ion (formula + adduct): [C57H96O6+NH4] 1+) stands 321.4 Å². Consider `CCCCCCC/C=C\CCCCCCCC(=O)OC[C@@H](COC(=O)CCCCCCCCCCCCCCC)OC(=O)CCCCCCCCCCCCCCCC` [TG 16:0_17:0_17:1] (ion (formula + adduct): [C53H100O6+NH4] 1+), for which the “TIMS collisional cross section” value (sample type: Liver) is recorded as 317.9 Å². `CCCCCCCCCCCCCCCCCC(=O)OC[C@@H](COC(=O)CCCCCCCCCCCCCCC)OC(=O)CCCCCCCCCCCCCCCC` [TG 16:0_17:0_18:0] (ion (formula + adduct): [C54H104O6+NH4] 1+): the “TIMS collisional cross section” value by setting is: (sample type: HeLa) 323.3 Å²; (sample type: Liver) 323.6 Å²; (sample type: plasma) 323.4 Å².

Consider `CCCCCCCC/C=C\CCCCCCCC(=O)OC[C@@H](COC(=O)CCCCCCCCCCCCCCC)OC(=O)CCCCCCCCCCCCCCCC` [TG 16:0_17:0_18:1] (ion (formula + adduct): [C54H102O6+NH4] 1+), for which the “TIMS collisional cross section” value is, setting by setting: (sample type: HeLa) 321.9 Å²; (sample type: Liver) 321.6 Å²; (sample type: plasma) 321.6 Å². In the case of `CCCCCCCCCCCCCCCCCCCC(=O)OC[C@@H](COC(=O)CCCCCCCCCCCCCCC)OC(=O)CCCCCCCCCCCCCCCC` [TG 16:0_17:0_20:0] (ion (formula + adduct): [C56H108O6+NH4] 1+), the “TIMS collisional cross section” value (sample type: HeLa) was 328.6 Å². With `CCCCCCCCCCCCCCCCCCCCCC(=O)OC[C@@H](COC(=O)CCCCCCCCCCCCCCC)OC(=O)CCCCCCCCCCCCCCCC` [TG 16:0_17:0_22:0] (ion (formula + adduct): [C58H112O6+NH4] 1+), the “TIMS collisional cross section” value was determined as 335 Å² (sample type: Liver) and 334.9 ± 0.42 Å² (sample type: plasma). For `CCCCCCCC/C=C\CCCCCCCCCCCC(=O)OC[C@@H](COC(=O)CCCCCCCCCCCCCCC)OC(=O)CCCCCCCCCCCCCCCC` [TG 16:0_17:0_22:1] (ion (formula + adduct): [C58H110O6+NH4] 1+), the “TIMS collisional cross section” value (sample type: HeLa) stood at 332.9 Å². For the compound `CCCCCCC/C=C\CCCCCCCC(=O)O[C@@H](COC(=O)CCCCCCC/C=C\CCCCCCCC)COC(=O)CCCCCCCCCCCCCCC` [TG 16:0_17:1_18:1] (ion (formula + adduct): [C54H100O6+NH4] 1+), the “TIMS collisional cross section” value reads like this: (sample type: HeLa) 319.4 Å²; (sample type: Liver) 319.35 ± 0.21 Å²; (sample type: plasma) 319.3 Å².
